Assay results reported in patent US9815835B2, “Substituted polycyclic carbamolypyridone derivative” (priority 2009, dated 2017).

Assays:
[1] = target: cap-dependent endonuclease (RNP fraction containing PB1•PB2•PA complex) (Influenza A virus, UniProt P15659); assay: biochemical; settings: RNP from A/WSN/33 virus, capped Cy3/BHQ2 30mer RNA substrate, 60 minutes at room temperature; read-out: CEN IC50
influenza virus = assay: microbe, parasite or virus in culture; type: cell-based, influenza virus (MDBK or MDCK cells); settings: unidentified influenza virus, 72 h, read-out: CPE EC50, effective concentration to achieve 50% CPE inhibition, 3 days incubation, WST-8

Compound	IC50 [1] [nM]	EC50 (influenza virus) [nM]
CN1CCCC(N2CN(C3c4ccccc4CSc4ccccc43)n3ccc(=O)c(O)c3C2=O)C1 (stereo not drawn) [Example 293]	290	437
C[C@@H](N1CN([C@H]2c3ccc(Br)cc3CSc3ccccc32)n2ccc(=O)c(O)c2C1=O)C(F)(F)F [Example 433]	14	17
CN1CC[C@@H](N2CN(C3c4ccccc4CCc4ccccc43)n3ccc(=O)c(O)c3C2=O)C1 [Example 250]	113	476
O=C1c2c(O)c(=O)ccn2N(C2c3ccccc3CCc3ccccc32)CN1CC(F)F [Example 259]	66	26
C[C@H](N1CN([C@H]2c3ccccc3CSc3c(Cl)cccc32)n2ccc(=O)c(O)c2C1=O)C(F)(F)F [Example 423]	280	19
CN1C[C@H](C2c3ccccc3CSc3ccccc32)n2ccc(=O)c(O)c2C1=O (stereo partly drawn) [Example 562]	22	62
CC(C)c1cccc2c1OCc1ccccc1C2N1CN(C(C)C)C(=O)c2c(O)c(=O)ccn21 (stereo not drawn) [Example 412]	292	203
CC(C)N1CN(C2c3ccccc3NC(=O)c3ccccc32)n2ccc(=O)c(O)c2C1=O (stereo not drawn) [Example 387]	300	1150
O=C1c2c(O)c(=O)ccn2N(C2c3ccccc3CSc3ccccc32)CN1[C@@H]1C[C@@H]1F (stereo partly drawn) [Example 323]	77	19
CC(CN1CCOCC1)N1CN(C2c3ccccc3CCc3ccccc32)n2ccc(=O)c(O)c2C1=O (stereo not drawn) [Example 482]	103	31
O=C1c2c(O)c(=O)ccn2N(C2c3ccccc3CSc3ccccc32)CN1CCF (stereo not drawn) [Example 304]	18	15
COC(=O)NCC1N(C(C)C)C(=O)c2c(O)c(=O)ccn2N1C1c2ccccc2CCc2ccccc21 (stereo not drawn) [Example 544]	168	51
O=C1c2c(O)c(=O)ccn2C(C2c3ccccc3CCc3ccccc32)CN1c1ccccn1 (stereo not drawn) [Example 569]	138	1010
O=C1c2c(O)c(=O)ccn2N(C2c3ccccc3CCc3ccccc32)CN1CCO [Example 361]	39	145
CC(C)N1CN([C@@H]2c3ccccc3[C@@H]3[C@H](c4ccccc42)C3(F)F)n2ccc(=O)c(O)c2C1=O [Example 386]	75	96
CN1CN(C2c3ccccc3COc3ccccc32)n2ccc(=O)c(O)c2C1=O (stereo not drawn) [Example 395]	43	89
COCCN1CN(C(c2ccccc2)c2ccccc2)n2c(CC#N)cc(=O)c(O)c2C1=O [Example 577]	233	337
CC(C)N1CC[C@@H](N2CN(C3c4ccccc4CCc4ccccc43)n3ccc(=O)c(O)c3C2=O)C1 [Example 252]	107	454
CC(C)[C@@H](CO)N1CN(C2c3ccccc3CSc3ccccc32)n2ccc(=O)c(O)c2C1=O (stereo partly drawn) [Example 378]	47	22
Cc1ccc(C)c2c1SCc1ccccc1C2N1CN(C(C)C)C(=O)c2c(O)c(=O)ccn21 (stereo not drawn) [Example 358]	51	69
CC(C)N1CN(C2c3ccccc3COc3c(Cl)cccc32)n2ccc(=O)c(O)c2C1=O (stereo not drawn) [Example 390]	95	29
CC(N1CN(C2c3ccccc3CSc3c(Cl)cccc32)n2ccc(=O)c(O)c2C1=O)C(F)(F)F (stereo not drawn) [Example 343]	122	18
C[C@@H](N1CN([C@H]2c3ccccc3SCc3c(F)cccc32)n2ccc(=O)c(O)c2C1=O)C(F)(F)F [Example 445]	13	4
Cc1cccc2c1CSc1ccccc1[C@H]2N1CN([C@H](C)C(F)(F)F)C(=O)c2c(O)c(=O)ccn21 [Example 464]	24	14
NCC1N(CCO)C(=O)c2c(O)c(=O)ccn2N1C1c2ccccc2CCc2ccccc21 (stereo not drawn) [Example 549]	76	2100
O=C1c2c(O)c(=O)ccn2N(C2c3ccccc3CSc3ccccc32)CN1CC(F)F (stereo not drawn) [Example 294]	35	18

Compound	IC50 [1] [nM]	EC50 (influenza virus) [nM]
CC(C#N)N1CC(C2c3ccccc3CCc3ccccc32)n2ccc(=O)c(O)c2C1=O (stereo not drawn) [Example 575]	58	87
CC(C)N1CN(C2c3ccc(Cl)cc3CCc3cc(Cl)ccc32)n2ccc(=O)c(O)c2C1=O [Example 246]	82	26
O=C1c2c(O)c(=O)ccn2N(C2c3ccccc3COc3ccccc32)CN1C1CC1 (stereo not drawn) [Example 392]	153	25
CN1CCC(N2CN(C3c4ccccc4CSc4ccccc43)n3ccc(=O)c(O)c3C2=O)CC1 (stereo not drawn) [Example 288]	299	85
CCOCCN1CN(C2c3ccccc3CCc3ccccc32)n2ccc(=O)c(O)c2C1=O [Example 268]	18	74
CC(C)(O)CN1CN(C2c3ccccc3CCc3ccccc32)n2ccc(=O)c(O)c2C1=O [Example 370]	113	61
CC(CN1CCSCC1)N1CN(C2c3ccccc3CSc3ccccc32)n2ccc(=O)c(O)c2C1=O (stereo not drawn) [Example 489]	133	14
CC(C)N1CN(C2c3cc(Cl)ccc3COc3ccccc32)n2ccc(=O)c(O)c2C1=O (stereo not drawn) [Example 408]	135	61
CC(C)N1CN(C2c3cc(F)ccc3CSc3ccc(F)cc32)n2ccc(=O)c(O)c2C1=O (stereo not drawn) [Example 346]	28	18
CC(CC(=O)Nc1ccccc1)N1CN(C(c2ccccc2)c2ccccc2)n2ccc(=O)c(O)c2C1=O (stereo not drawn) [Example 238]	101	440
O=C1c2c(O)c(=O)ccn2N(C2c3ccccc3CSc3ccccc32)CN1[C@@H]1CCN(CCOCc2ccccc2)C1 (stereo partly drawn) [Example 286]	161	121
C[C@H](N1CN([C@@H]2c3ccccc3SCc3c(Cl)cccc32)n2ccc(=O)c(O)c2C1=O)C(F)(F)F [Example 419]	124	19
CC(C)N1CN(C2c3ccccc3CCc3ccsc32)n2ccc(=O)c(O)c2C1=O (stereo not drawn) [Example 388]	133	63
CC(C)N1CN(C(c2ccccc2Cl)c2ccccc2Cl)n2ccc(=O)c(O)c2C1=O [Example 240]	37	48
N#CCN1C[C@H](C(c2ccccc2)c2ccccc2)n2ccc(=O)c(O)c2C1=O [Example 574]	165	442
NN1CC(C2c3ccccc3CCc3ccccc32)n2ccc(=O)c(O)c2C1=O (stereo not drawn) [Example 571]	65	320
O=C1c2c(O)c(=O)ccn2N(C2c3ccccc3CCc3ccccc32)CN1Cc1nccs1 [Example 271]	73	102
C[C@H](N1CN([C@H]2c3cc(F)ccc3CSc3ccccc32)n2ccc(=O)c(O)c2C1=O)C(F)(F)F [Example 447]	96	18
CCN1CN(C2c3ccccc3CSc3ccccc32)n2ccc(=O)c(O)c2C1=O (stereo not drawn) [Example 309]	40	13
CCC(COC)N1CN(C2c3ccccc3CCc3ccccc32)n2ccc(=O)c(O)c2C1=O (stereo not drawn) [Example 260]	91	65
C[C@H](N1CN([C@H]2c3ccc(Cl)cc3CSc3ccccc32)n2ccc(=O)c(O)c2C1=O)C(F)(F)F [Example 420]	58	21
CSCC(=O)NCC1N(C(C)C)C(=O)c2c(O)c(=O)ccn2N1C1c2ccccc2CCc2ccccc21 (stereo not drawn) [Example 546]	202	124
CC(C)N1C(=O)c2c(O)c(=O)ccn2N(C2c3ccccc3CCc3ccccc32)C1CN (stereo not drawn) [Example 532]	98	75
CN1CN(C2c3ccccc3CSc3c(Cl)cccc32)n2ccc(=O)c(O)c2C1=O (stereo not drawn) [Example 347]	14	17
O=C1c2c(O)c(=O)ccn2N(C2c3ccccc3CSc3ccccc32)CN1C1CC1 (stereo not drawn) [Example 302]	35	14
